Biological target: T1, PTK2 (Homo sapiens, UniProt Q05397)
T1 construct: purchased Invitrogen PV3832
Assay: PTK2 enzyme test Assay 2 (DELFIA, poly-Glu-Tyr substrate, PT66 antibody)
Assay type: biochemical
Details: Assay 2 (values marked *); 1 h pre-incubation, 50 μM ATP mix, final DMSO 0.5%
Text: This test uses active PTK2 enzyme (Invitrogen Code PV3832) and poly-Glu-Tyr (4:1, Sigma P-0275) as the kinase substrate. The kinase activity is detected by means of the phosphorylation of the substrate in a DELFIA™ assay. The phosphorylated substrate is detected with the europium-labelled phosphotyrosine antibody PT66 (Perkin Elmer, No.: AD0040).
In order to determine concentration-activity curves with PTK2-inhibitors the compounds are serially diluted first of all in 100% DMSO and then in kinase dilution buffer (20 mM TRIS/HCl pH 7.5, 0.1 mM EDTA, 0.1 mM EGTA, 0.286 mM sodium orthovanadate, 10% glycerol with the addition of freshly prepared BSA (fraction V, 1 mg/mL) and DTT (1 mM)) and 10 μL of each dilution are dispensed per well in a 96-well microtitre plate (clear U-shaped base plate, Greiner No. 650101) (the inhibitors are tested in duplicates) and mixed with 10 μL/well of PTK2 kinase (0.01 μg/well). PTK2 kinase is diluted accordingly beforehand with kinase dilution buffer. The diluted PTK2 inhibitor and the PTK2 kinase are pre-incubated for 1 h at RT and shaken at 500 revolutions per min. Then 10 μL/well poly-Glu-Tyr substrate (25 μg/well poly-Glu-Tyr, 0.05 μg/well biotinylated poly-Glu-Tyr dissolved in 250 mM TRIS/HCl pH 7.5, 9 mM DTT) are added. The reaction is started by the addition of 20 μL of ATP Mix (30 mM TRIS/HCl pH 7.5, 0.02% Brij, 0.2 mM sodium orthovanadate, 10 mM magnesium acetate, 0.1 mM EGTA, 1× phosphatase inhibitor cocktail 1 (Sigma, No.: P2850), 50 μM ATP (Sigma, No.: A3377; 15 mM stock solution))—the final concentration of DMSO is 0.5%. After 1 h kinase reaction (the plates are shaken at 500 rpm), the reaction is stopped by the addition of 12 μL/well of 100 mM EDTA, pH 8, and shaken for a further 5 min at RT (500 U/min). 55 μL of the reaction mixture are transferred into a streptavidin plate (Strepta Well High Bind (transparent, 96-well) made by Roche, No.: 11989685001) and incubated for 1 h at RT (shaking at 500 rpm). Then the microtitre plate is washed five times with 200 μL/well D-PBS (Invitrogen, No. 14190). 100 μL of a solution containing DELFIA Eu-N1 Anti-Phosphotyrosine PT66 antibody (Perkin Elmer, No.: AD0040, diluted 1:9000 in DELFIA test buffer (Perkin Elmer, No.: 1244-111)) is then added and it is incubated for 1 h at RT (shaking at 500 rpm). Then the plate is washed five times with 200 μL/well DELFIA washing buffer (Perkin Elmer, No.: 1244-114), 200 μL/well strengthening solution (Perkin Elmer, No.: 1244-105) is added and the whole is incubated for 10 min at RT (shaking at 300 rpm).
The time-delayed europium fluorescence is then measured in a microtitre plate reader (VICTOR^3, Perkin Elmer). The positive control consists of wells that contain solvent (0.5% DMSO in test buffer) and display uninhibited kinase activity. Wells that contain test buffer instead of enzyme act as a control for the background kinase activity.
The IC50 values are determined from concentration-activity analyses by iterative calculation using a sigmoid curve analysis algorithm (FIFTY, based on GraphPAD Prism Version 3.03) with a variable Hill coefficient.

T1 sequence (Q05397 whole entry): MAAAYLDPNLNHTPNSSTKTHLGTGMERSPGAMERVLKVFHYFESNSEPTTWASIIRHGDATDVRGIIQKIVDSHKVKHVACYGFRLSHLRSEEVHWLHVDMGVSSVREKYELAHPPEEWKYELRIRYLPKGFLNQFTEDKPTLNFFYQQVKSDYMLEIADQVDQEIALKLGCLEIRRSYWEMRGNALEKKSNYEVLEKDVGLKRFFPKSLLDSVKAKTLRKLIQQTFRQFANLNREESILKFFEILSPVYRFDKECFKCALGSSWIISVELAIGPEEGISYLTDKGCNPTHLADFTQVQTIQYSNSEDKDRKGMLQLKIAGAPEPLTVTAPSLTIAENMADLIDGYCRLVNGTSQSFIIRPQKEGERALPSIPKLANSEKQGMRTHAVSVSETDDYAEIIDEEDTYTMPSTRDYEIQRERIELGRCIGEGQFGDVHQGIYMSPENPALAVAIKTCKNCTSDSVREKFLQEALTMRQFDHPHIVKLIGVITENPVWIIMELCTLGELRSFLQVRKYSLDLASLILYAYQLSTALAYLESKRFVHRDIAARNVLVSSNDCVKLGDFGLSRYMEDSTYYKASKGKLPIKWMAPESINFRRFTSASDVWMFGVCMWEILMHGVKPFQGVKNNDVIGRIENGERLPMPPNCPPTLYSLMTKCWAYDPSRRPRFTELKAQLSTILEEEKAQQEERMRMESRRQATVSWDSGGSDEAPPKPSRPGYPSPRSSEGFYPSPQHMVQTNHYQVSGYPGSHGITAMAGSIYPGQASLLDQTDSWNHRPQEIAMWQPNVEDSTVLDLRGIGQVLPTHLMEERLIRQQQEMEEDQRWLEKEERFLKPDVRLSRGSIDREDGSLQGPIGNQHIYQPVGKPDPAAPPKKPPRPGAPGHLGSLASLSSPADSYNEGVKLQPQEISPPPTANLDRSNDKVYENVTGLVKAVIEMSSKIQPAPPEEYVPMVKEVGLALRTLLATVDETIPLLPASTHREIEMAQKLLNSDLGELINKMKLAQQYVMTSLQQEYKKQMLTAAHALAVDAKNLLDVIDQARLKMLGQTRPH

COc1cc(NC(=O)C2CCN(C)CC2)ccc1Nc1ncc(C(F)(F)F)c(N[C@@H]2Cc3ccccc3[C@H]2N(C)S(C)(=O)=O)n1 [Example I-73, 1-methyl-piperidine-4-carboxylic acid (4-{4-[(1R,2R)-1-(methanesulphonyl-methyl-amino)-indan-2-ylamino]-5-trifluoromethyl-pyrimidin-2-ylamino}-3-methoxy-phenyl)-amide]
IC50: 0.48 nM

CCc1cc(Nc2ncc(C(F)(F)F)c(N[C@@H]3Cc4ccccc4[C@H]3N(C)S(C)(=O)=O)n2)c(OC)cc1N1CCN(C)CC1 [Example I-67, N-((1R,2R)-2-{2-[5-ethyl-2-methoxy-4-(4-methyl-piperazin-1-yl)-phenylamino]-5-trifluoromethyl-pyrimidin-4-ylamino}-indan-1-yl)-N-methyl-methanesulphonamide]
IC50: 0.68 nM

COc1cc(C(=O)NCCN(C)C)ccc1Nc1ncc(C(F)(F)F)c(N[C@@H]2CCc3ccccc3[C@H]2N(C)S(C)(=O)=O)n1 [Example I-94]
IC50: 16 nM

COc1cc(NC(=O)C2CCN(C)C2)ccc1Nc1ncc(C(F)(F)F)c(N[C@@H]2Cc3ccccc3[C@H]2N(C)S(C)(=O)=O)n1 (stereo partly shown) [Example I-72]
IC50: 0.74 nM

— patent US8410126B2, “Pyrimidine inhibitors of PKTK2” (Boehringer Ingelheim International GmbH, priority 2009, dated 2013)
